Laboratory results as given in ChEMBL document CHEMBL5143535, “Novel O-acylated (E)-3-aryl-6,7-dihydrobenzisoxazol-4(5H)-one oximes targeting HSP90-HER2 axis in breast cancer cells” (Bioorg Med Chem, 2022).
The source made the active and inactive calls. No cut-off for these calls is given here.

Columns and labels:
HCC1954 [1] = experiment: Antiproliferative activity against human HCC1954 cells measured after 72 hrs by MTT assay; assay type: functional, cell-based; settings: HCC1954, 72 h
MDA-MB-231 = experiment: Antiproliferative activity against human MDA-MB-231 cells measured after 72 hrs by MTT assay; assay type: functional, cell-based; settings: MDA-MB-231, 72 h
MCF7 = experiment: Antiproliferative activity against human MCF7 cells measured after 72 hrs by MTT assay; assay type: functional, cell-based; settings: MCF7, 72 h
HCC1954 [2] = experiment: Antiproliferative activity against human HCC1954 cells measured after 72 hrs by SRB assay; assay type: functional, cell-based; settings: HCC1954, 72 h
[3] = Cytotoxicity against human MCF-10A cells measured after 72 hrs by MTT assay; assay type: toxicity, cell-based
[4] = Effect on HSP70 expression in human HCC1954 cells at 10 to 20 uM measured after 72 hrs by Western blot analysis; assay type: toxicity, cell-based; settings: hcc1954, 72 h, dose 10-20 µM
[5] = molecular target: T1, Heat shock protein HSP90 (Homo sapiens) (UniProt P07900+P08238); experiment: Inhibition of HSP90 in human HCC1954 cells assessed as down regulation of AKT expression at 10 to 20 uM measured after 72 hrs by Western blot analysis; assay type: cell-based; settings: dose 10-20 µM
HCC1954 [6] = experiment: Cell cycle arrest in human HCC1954 cells assessed as decrease in cell accumulation at G1 phase at 10 to 20 uM measured after 48 hrs by propidium iodide staining based flow cytometry; assay type: functional; settings: dose 10-20 µM
[7] = molecular target: T1, Heat shock protein HSP90 (Homo sapiens); experiment: Inhibition of HSP90 in human HCC1954 cells assessed as down regulation of EGFR expression at 10 to 20 uM measured after 72 hrs by Western blot analysis; assay type: cell-based; settings: dose 10-20 µM
[8] = molecular target: T1, Heat shock protein HSP90 (Homo sapiens); experiment: Inhibition of HSP90 in human HCC1954 cells assessed as down regulation of ERK1/2 expression at 10 to 20 uM measured after 72 hrs by Western blot analysis; assay type: cell-based; settings: dose 10-20 µM
HCC1954 [9] = experiment: Cell cycle arrest in human HCC1954 cells assessed as increase in cell accumulation at sub-G1 phase measured after 48 hrs by propidium iodide staining based flow cytometry; assay type: functional; settings: dose 10-20 µM, DDE = dose-dependent effect
[10] = molecular target: T1, Heat shock protein HSP90 (Homo sapiens); experiment: Inhibition of HSP90 in human HCC1954 cells assessed as down regulation of HER2 expression at 10 to 20 uM measured after 72 hrs by Western blot analysis; assay type: cell-based; settings: dose 10-20 µM
[11] = molecular target: T1, Heat shock protein HSP90 (Homo sapiens); experiment: Inhibition of HSP90 in human HCC1954 cells assessed as reduction in AKT phosphorylation at 10 to 20 uM measured after 72 hrs by Western blot analysis; assay type: cell-based; settings: dose 10-20 µM
HCC1954 [12] = experiment: Induction of apoptosis in human HCC1954 cells assessed as increase in cleaved PARP expression at 10 to 20 uM measured after 72 hrs by Western blot analysis; assay type: functional, cell-based; settings: dose 10-20 µM
HCC1954 [13] = experiment: Cell cycle arrest in human HCC1954 cells assessed as cell accumulation at sub-G1 phase at 20 uM measured after 48 hrs by propidium iodide staining based flow cytometry relative to control; assay type: functional
HCC1954 [14] = experiment: Induction of apoptosis in human HCC1954 cells assessed as increase in cleaved caspase-9 expression at 10 to 20 uM measured after 72 hrs by Western blot analysis; assay type: functional, cell-based; settings: dose 10-20 µM
HCC1954 [15] = experiment: Induction of apoptosis in human HCC1954 cells assessed as reduction in NF-kappaB expression at 10 to 20 uM measured after 72 hrs by Western blot analysis; assay type: functional, cell-based; settings: dose 10-20 µM

| SMILES | IC50 (HCC1954 [1]) [µM] | IC50 (MDA-MB-231) [µM] | IC50 (MCF7) [µM] | other results |
| --- | --- | --- | --- | --- |
| Nc1cccc(C(=O)Nc2cccc(C(=O)O/N=C3\CCCc4noc(-c5ccc(F)cc5)c43)c2)c1 | > 25 | > 25 | > 25 | – |
| O=C(Nc1ccccc1C(=O)O/N=C1\CCCc2onc(-c3ccc(F)cc3)c21)c1cccc(F)c1 | > 25 | > 25 | > 25 | – |
| CC1(C)C/C(=N\OC(=O)c2ccccc2NC(=O)c2ccccc2F)c2c(-c3ccc(F)cc3)noc2C1 | > 25 | > 25 | > 25 | – |
| O=C(Nc1cccc(C(=O)O/N=C2\CCCc3noc(-c4ccc(F)cc4)c32)c1)c1cccc(F)c1 | > 25 | > 25 | > 25 | – |
| COc1cc(/C=C(\C#N)C(N)=O)cc(CSc2nc3ccccc3s2)c1O | – | – | – | IC50 (HCC1954 [2]): 30 µM |
| O/N=C1\CCCc2onc(-c3cccc(F)c3)c21 | > 25 | > 25 | > 25 | – |
| COc1ccc(-c2noc3c2/C(=N/OC(=O)c2cccc(NC(=O)c4cccc(F)c4)c2)CC(C)(C)C3)cc1OC | > 25 | > 25 | > 25 | – |
| CC1(C)C/C(=N\OC(=O)c2cccc(NC(=O)c3cccc(F)c3)c2)c2c(-c3cccc(F)c3)noc2C1 | > 25 | > 25 | 25 | – |
| COc1ccc(-c2onc3c2/C(=N/OC(=O)c2cccc(NC(=O)c4cccc(F)c4)c2)CC(C)(C)C3)cc1OC | > 25 | > 25 | > 25 | – |
| Nc1cccc(C(=O)Nc2cccc(C(=O)O/N=C3\CCCc4onc(-c5ccc(F)cc5)c43)c2)c1 | > 25 | > 25 | > 25 | – |
| CC(C)(C)OC(=O)Nc1cccc(C(=O)Nc2cccc(C(=O)O/N=C3\CCCc4onc(-c5ccc(F)cc5)c43)c2)c1 | > 25 | > 25 | > 25 | – |
| COc1cc(-c2onc3c2/C(=N/OC(=O)c2cccc(NC(=O)c4cccc(F)c4)c2)CC(C)(C)C3)ccc1O | 6 | > 25 | 6.2 | IC50 at 72 h [3]: > 30 µM; Activity [4]: Non-Toxic; inhibition [5]: Active; IC50 (HCC1954 [2]): 6 µM; Activity (HCC1954 [6]): Active; inhibition [7]: Active; inhibition [8]: Active; Activity (HCC1954 [9]): Dde; inhibition [10]: Active; inhibition [11]: Active; Activity (HCC1954 [12]): Active; Activity (HCC1954 [13]): 50%; Activity (HCC1954 [14]): Active; Activity (HCC1954 [15]): Active |
| O=C(Nc1cccc(C(=O)O/N=C2\CCCc3onc(-c4cccc(F)c4)c32)c1)c1cccc(F)c1 | > 25 | 8.7 | 4.7 | – |
| O=C(O)c1cccc(NC(=O)c2cccc(F)c2)c1 | > 25 | > 25 | > 25 | – |
| CC(=O)Nc1ccccc1C(=O)O/N=C1\CCCc2noc(-c3ccc(F)cc3)c21 | > 25 | > 25 | > 25 | – |
| O=C(Nc1cccc(C(=O)O/N=C2\CCCc3noc(-c4cccc(F)c4)c32)c1)c1cccc(F)c1 | > 25 | 9.3 | > 25 | – |
| O=C(Nc1ccccc1C(=O)O/N=C1\CCCc2noc(-c3ccc(F)cc3)c21)c1ccccc1F | > 25 | > 25 | > 25 | – |
| COc1ccc(-c2noc3c2/C(=N/OC(=O)c2cccc(NC(=O)c4cccc(N)c4)c2)CCC3)cc1OC | > 25 | > 25 | 25 | – |
| COc1cccc(C(=O)Nc2cccc(C(=O)O/N=C3\CCCc4onc(-c5ccc(OC)c(OC)c5)c43)c2)c1 | > 25 | > 25 | > 25 | – |
| CC1(C)C/C(=N\OC(=O)c2cccc(NC(=O)c3cccc(F)c3)c2)c2c(noc2-c2cccc(F)c2)C1 | > 25 | > 25 | > 25 | – |
| COc1ccc(-c2noc3c2/C(=N/OC(=O)c2cccc(NC(=O)c4cccc(F)c4)c2)CCC3)cc1OC | > 25 | > 25 | > 25 | – |
| CC1(C)C/C(=N\OC(=O)c2cccc(NC(=O)c3cccc(F)c3)c2)c2c(-c3ccc(F)cc3)noc2C1 | > 25 | > 25 | 5.2 | – |
| O=C(Nc1cccc(C(=O)O/N=C2\CCCc3onc(-c4ccccc4F)c32)c1)c1cccc(F)c1 | > 25 | 6.2 | > 25 | – |
